For one series, the system named is SKOV-3 cells. Description: In vivo tumor formation assay in nude mice. As to conditions: siRNA-transfected SKOV-3 cells injected s.c. into flanks of nude mice, four mice, vs control siRNA cells. Details: species or system Balb/c athymic nude mice. Here is the method: SKOV-3 cells were trypsinized 3 days following transfection with either Control or TSG101 siRNA, and subsequently washed and resuspended in phosphate-buffered saline at 5×10^6 cells/ml. 200 μl (1×10^6 cells) of control or TSG101 transfected SKOV-3 cells were injected s.c. into the right and left flanks (respectively) of 4-6 week old Balb/c athymic nude mice (Jackson Laboratory, Bar Harbor, Me.). Mice were examined every 5 days until visible tumors appeared. Subsequently, tumor volume measurements were taken every 3-5 days, and mice were sacrificed 6 weeks after initial injections, and a final measurement of tumor volume was taken.
Further, in vivo tumor formation assay in nude mice was performed to determine if TSG101 knockdown affected the tumorigenicity of SKOV-3 cells. Seventy-two hours post transfection, SKOV-3 cells transfected either with TSG101 or control siRNA duplex were pair-wise injected subcutaneously into the left or right flanks, respectively, of the same BALB/c athymic nude mouse. Tumor growth was monitored for 6 weeks, at which time the tumors were harvested and tumor volume was measured. […] Due to the transient nature of the siRNA duplex, the actual effect of TSG101 gene silencing should be more prominent.

The test system of a further series is CITED2 mRNA. The series can be described thus: CITED2 mRNA by RT-PCR in SKOV-3 cells. As to conditions: SKOV-3, 3 days following siRNA transfection. Type of series: cell-based, human. Here is the method:
(§1) Total RNA was isolated from cells using Trizol reagent (Invitrogen), and concentration was determined by absorbance at 260 nm. Real-Time PCR analysis was carried out using fluorescent TSG101 primers on an Applied Biosystems Prism 7000 Sequence Detection System. RT-PCR was carried out for TSG101 and HIF-1α using 1 μg of isolated total RNA under the following parameters: 94° C. 1 min, 57° C. 1 min and 72° C. 1.5 min, 35 cycles. Primers used for RT-PCR were TSG10 forward 5′-[…]-3′ (SEQ ID NO: 1), reverse 5′-TTTCCTCC TTCATCCGCCATCTC-3′ (SEQ ID NO: 2), CITED2 forward 5′-[…]-3′ (SEQ ID NO: 3), reverse 5′-[…]-3′ (SEQ ID NO: 4), HIF-1a ? forward 5′-[…]-3′ (SEQ ID NO: 5), reverse 5′-[…]-3′ (SEQ ID NO: 6).
(§2) A siRNA duplex specific for TSG101 (targeting TSG101 coding sequence 413-433) and a scrambled random control siRNA with matching GC content were obtained from Dharmacon. This specific TSG101 siRNA duplex (sense: CCUCCAGUCUUCUCUCGUCdTdT (SEQ ID NO: 7) and antisense: dTd[…] (SEQ ID NO: 8) have been successfully applied to suppress the expression of endogenous TSG101 in several high quality studies (Amit et al., 2004; Garrus et al., 2001; Hewitt et al., 2002; Ismaili et al., 2005). Transfection of the siRNAs was according to the manufacturer's instructions using Lipofectamine 2000 (Invitrogen).

For a further series, the system named is HIF-1α mRNA. The series can be described thus: HIF-1α mRNA by RT-PCR in SKOV-3 cells. It counts as cell-based, human. As to conditions: SKOV-3, 3 days following siRNA transfection. The protocol: as §1, §2
Another series deals with caspase 3. The series can be described thus: Caspase activity assay. It counts as cell-based, human. As to conditions: SKOV-3 lysates, 6 days following transfection. The protocol: SKOV-3 cells transfected with either control or TSG101 siRNA were grown in 10 cm plates to 70-80% confluence, then harvested by trypsinization, washed twice in PBS and once in wash buffer (100 mM HEPES pH 7.4, 0.5 mM EDTA, 1 mM DTT, 0.1 mM PMSF, 2 μg/ml leupeptin, 2 μg/ml pepstatin). The cells were lysed on ice for 30 min with frequent vortexing in 150 μl of lysis buffer (wash buffer plus 1% Triton-X100). Cell debris was removed by centrifugation at 16,000 g for 20 min at 4° C. Lysate protein concentration was determined by Bradford assay (Bio-Rad). Caspase 3 activity was measured using fluorogenic substrates […] that is specific for caspase 3. Release of free AFC was monitored using a Fluoroskan fluorescence microplate reader with excitation and emission set to 405 and 510 nm, correspondingly.

A further series deals with p21 mRNA. Description: p21 mRNA by RT-PCR in SKOV-3 cells. It counts as cell-based, human. As to conditions: SKOV-3, after 4 days following siRNA transfection. Here is the method:
(§3) Total RNA was isolated from cells using Trizol reagent (Invitrogen), and concentration was determined by absorbance at 260 nm. Semiquantitative RT-PCR was carried out using 1 μg of isolated total RNA. Primers used for RT-PCR were TSG101 forward 5′-[…]-3′ (SEQ ID NO: 1), reverse 5′-[…]-3′ (SEQ ID NO:2), p21 forward 5′-[…]-3′ (SEQ ID NO: 9), reverse 5′-CCGTTTTCGACCCTGAGAG-3′ (SEQ ID NO:10).

The next series has as its system p21. Description: p21 protein by immunoblotting in SKOV-3 cells. Type of series: cell-based, human. As to conditions: SKOV-3, after 4 days following siRNA transfection. Here is the method: (§4) Cells transfected with either control or TSG101 siRNA were passaged and subsequently harvested on the appropriate days by trypsinizing cells, washing pelleted cells in PBS and then lysing cells in SDS lysis buffer. Protein concentration of cell lysates was assayed with the Bio-Rad protein assay reagent. […] Immunoblots were developed by enhanced chemiluminescence (Pierce, Rockford, Ill.).
For orientation: Immunoblotting shows a protein as a band on a membrane.

The next series has as its system p21 promoter. Description: p21 promoter luciferase reporter assay in SKOV-3 cells. It counts as cell-based, human. From the text: To investigate the mechanism by which TSG101 silencing induced the accumulation of p21 mRNA, a plasmid construct, p21P, with a luciferase reporter gene under the transcriptional control of the p21 promoter was co-transfected into the SKOV-3 cells either with TSG101 specific or control siRNA. […] Since SKOV-3 cells are p53-null, this apparent TSG101 silencing-mediated transcriptional activation of p21 was most likely p53-independent.
To further confirm this observation, the luciferase reporter activity was monitored using a deletion p21 reporter construct, p21PΔ1.1, which contained a 1.1 kb deletion that removed the consensus p53-responsive element from the 5′ region of the 2.4 kb p21 promoter 27. […] Since TSG101 contained a putative DNA-binding domain and could act as a general transcriptional suppressor 2, it was hypothesized that TSG101, acting as a transcriptional corepressor, suppressed the transactional activation of p21 by binding to the p21 promoter. Consequently, suppression of TSG101 by siRNA led to the transcriptional activation of p21.
On the technique in general: Reporter assays use an easily measured gene product as a stand-in for the process of interest.

The subject of series [1] is TSG101 recruitment to the p21 promoter. The series can be described thus: Chromatin immunoprecipitation (ChIP) assay with TSG101 antibody. It counts as cell-based, human. As to conditions: SKOV-3, ChIP with TSG101 antibody, vs control siRNA. From the text: Pelleted DNA was resuspended in TBE. […] ID NO: 11), reverse [NT] ID NO:12).
The test system of the next series is TSG101. Description: TSG101 expression after siRNA by semiquantitative PCR and immunoblotting in SKOV-3 cells. It counts as cell-based, human. As to conditions: SKOV-3, semi-quantitative PCR and immunoblotting.
From the text: as §2, §3, §4

“Also recorded” adds a separate entry of the source.

With “TSG101 siRNA: siRNA duplex from Dharmacon targeting TSG101 coding sequence 413-433, SEQ ID NO: 7 and 8 (chain 1 CCUCCAGUCUUCUCUCGUCTT; chain 2 TTGGAGGUCAGAAGAGAGCAG; chemistry not fully specified; one strand is listed 3' to 5')”, the tumor volume entry in the series on SKOV-3 cells is reported as “significantly smaller; also recorded: reduced tumor growth”. In addition, the “CITED2 mRNA expression” value in the series on CITED2 mRNA was “significantly down-regulated”. The “HIF-1α mRNA expression” value in the series with HIF-1α mRNA is “significantly down-regulated”. In addition, in the series with caspase 3, the “caspase 3 activity” value is “apparent increases”. The “p21 messenger RNA level” value in the series on p21 mRNA was “significantly upregulated”. In the series with p21, the p21 protein level entry is “significantly upregulated”. Also, the “induction of p21 (luciferase reporter)” value in the series with p21 promoter (SKOV-3, full-length p21 promoter construct p21P) was determined as 6 fold; in the series with p21 promoter (SKOV-3, p53-deletion construct p21PΔ1.1) it was 6 fold. For the same substance, the “luciferase activity (p21 promoter reporter)” value in the series with p21 promoter (SKOV-3, p21P construct co-transfected with siRNA, vs control siRNA) is reported as “significantly increased; also recorded: potentiates p21 transcription”. Besides, the “recruitment of TSG101 to the p21 promoter” value in [1] was “dramatically reduced”. The “TSG101 expression (mRNA and protein)” value in the series with TSG101 is listed as “Suppression of TSG101 expression was confirmed”.
